Legend:
Assay type in all cases: cell-based
[1] = tested on: HeLa (cervical cancer cell line); test: Viability assay (CellTiter-Blue), HeLa; settings: Homo sapiens
Description: (§1) Assays assessing cytotoxicity of β-lapachone and derivatives were performed by CellTiter-Blue assay (Promega) according to the manufacturer's instructions. Briefly, adherent cancer-cell lines were plated at 20,000 cells/well in 96 well plates or suspension cell lines were plated at a concentration of 2×10^5 cells/mL in 24 well plates. Compound stocks in media were made by dilution of DMSO stocks containing the compound of interest to obtain a final in-plate DMSO concentration of only 0.1%. Incubation was performed for 48 h. Following incubation, media was replaced with media containing CellTiter-Blue (Promega) in 1:10 dilution and the plates were incubated for 1.5-4 h. The fluorescence of the plates was recorded (excitation 555 nm, emission 585 nm, […] Reader, Molecular Devices). Cell viability was calculated by division of the fluorescence intensity of treated wells by that of the calculated average fluorescence intensity of replicate negative control wells containing cells with 0.1% DMSO only. Values and reported error bars represent the mean and standard error of the mean of three triplicate repeats for each concentration tested.

[2] = tested on: SKBR3 (breast cancer cell line); test: Viability assay (CellTiter-Blue), SKBR3; settings: Homo sapiens, SK-BR-3
Description: as §1

[3] = tested on: HL-60 cells; test: N-acetyl cysteine cytotoxicity assay
Description: For assays involving cytotoxicity of β-lapachone derivatives with and without antioxidant N—-acetyl cysteine, HL-60 cells were plated into 24 well plates at a concentration of 2.5×10^5 cells/mL in 450 μL. To each well was then added 25 μL of drug diluted in PBS to obtain the correct in-plate drug concentration, and 25 μL of PBS or a stock of N-acetyl cysteine at 12 mM in PBS. DMSO was maintained at an in-plate concentration of 0.1%. After 96 h incubation, toxicity was assessed by counting of live cells using the Trypan Blue exclusion method with a Countess II Automated Cell Counter (ThermoFisher Scientific) according to the manufacturer's instructions. Cell viability was determined by division of average live cell number of treated wells by average live cell number for control wells treated with 0.1% DMSO. […] Values recorded are the mean of three repeat wells, with error bars representing the standard error of the mean for each concentration tested.

[4] = tested on: SkBr-3; test: Toxicity with/without β-glucuronidase, SkBr-3; settings: Homo sapiens, SK-BR-3; SkBr-3; read-out: IC50 β-lapachone, 1
Description: Assays assessing cytotoxicity of β-lapachone and derivatives were performed by CellTiter-Blue assay (Promega) according to the manufacturer's instructions. Briefly, adherent cancer-cell lines were plated at 20,000 cells/well in 96 well plates or suspension cell lines were plated at a concentration of 2×10^5 cells/mL in 24 well plates. Compound stocks in media were made by dilution of DMSO stocks containing the compound of interest to obtain a final in-plate DMSO concentration of only 0.1%. Incubation was performed for 48 h. Following incubation, media was replaced with media containing CellTiter-Blue (Promega) in 1:10 dilution and the plates were incubated for 1.5-4 h. The fluorescence of the plates was recorded (excitation 555 nm, emission 585 nm, MiniMax i3x Reader, Molecular Devices).
Cell viability was calculated by division of the fluorescence intensity of treated wells by that of the calculated average fluorescence intensity of replicate negative control wells containing cells with 0.1% DMSO only. Values and reported error bars represent the mean and standard error of the mean of three triplicate repeats for each concentration tested. IC50 values were calculated using GraphPad Prism 8 software.
The potential of compound 37a, glucuronide-PHB-BL, as a prodrug was investigated. As discussed above, at physiological pH the compound has a relatively slow-release rate. Toxicity of Gluc-PHB-BL 37a was tested against a range of cell lines with and without added β-glucuronidase. Addition of the enzyme mimics conditions of the solid tumour environment.

[5] = tested on: MOLM-13; test: Viability assay with small molecule prodrugs, Trypan Blue exclusion, MOLM-13; settings: 5 μM, 24 h timepoint
Description: For assays assessing cytotoxicity of β-lapachone versus small molecule dipeptide prodrugs, suspension cells were plated into 24 well plates at a density of 2.5×10^5 cells/mL in 240 μL. Serial dilutions of compound were made up in PBS. 60 μL of each stock of either PBS, or compound in PBS was added to the cells to achieve the desired final concentration. After the specified incubation time, toxicity was assessed by counting of live cells using the Trypan Blue exclusion method with a Countess II Automated Cell Counter (ThermoFisher Scientific) according to the manufacturer's instructions. Cell viability was determined by division of average live cell number of treated wells by average live cell number for control wells treated with PBS only. Values recorded are the mean of three repeat wells, with error bars representing the standard error of the mean for each concentration tested. IC50 values were calculated using GraphPad Prism software.

Structure (SMILES): CC1(C)CCC2=C(O1)c1ccccc1C(=O)C2=O [Compound 1, β-lapachone, reference compound]
- IC50 [1]: 4200 nM
- IC50 [2]: 2800 nM
- change of IC50 upon NAC addition ([3]; HL-60): more than doubled
- IC50 ([3]; Homo sapiens, HL-60, HL-60, without NAC): 470 ± 260 nM
- IC50 [4]: 2750 nM
- toxicity to MOLM-13 [5]: complete cell death

Source: US20250170252A1, “QUINONE PROTECTED FORMS AND CONJUGATES” (CAMBRIDGE ENTERPRISE LIMITED, priority 2022, published 2025)
